The values below come from PubChem BioAssay AID1996.

≈ marks a conversion by molar mass, not a printed value.

As usually defined, the solubility (kinetic) is the concentration staying in solution when a stock, usually in DMSO, is diluted into the medium.

The conditions of this data set: buffer; pH 7.4; 200.0 µM.
Turning to `O=C(Cc1ccccc1)NCc1ccncc1`, the solubility (kinetic) stood at 28.2 µg/mL (≈ 125 µM).
Under `Cc1noc(-c2ccccc2)c1NC(=O)Nc1ccc(Cl)cc1` stands 3.1 µg/mL (≈ 9.46 µM).
Molecule `O=S1(=O)CCN(Cc2ccc(F)cc2)CC1` displayed a kinetic solubility above 36.5 µg/mL.
Next, `O=C(NN1CCOCC1)c1ccco1`: above 29.4 µg/mL; `CSc1ncccc1C(=O)Nc1cccc(S(=O)(=O)N2CCCCCC2)c1`: 11.2 µg/mL (≈ 27.6 µM).
The molecule `CC(NC(=S)NC(=O)c1ccccc1Br)c1ccccc1` (configuration not stated) gave a kinetic solubility of 4.9 µg/mL (≈ 13.5 µM).
For the molecule `CCCc1c(C)nc(N2CCN(c3ccccc3OC)CC2)[nH]c1=O`, the solubility (kinetic) came to 2.5 µg/mL (≈ 7.3 µM). This solubility kinetic is about 2-fold lower than that of the molecule before.
As for `O=C1/C(=C/c2cccnc2)N2CCC1CC2`, the solubility (kinetic) was above 32.1 µg/mL.
`Cn1c(SCc2ccccc2)nc(N)c(N=O)c1=O` had a kinetic solubility of 13.6 µg/mL (≈ 49.2 µM).
Under `CC(=O)c1ccc(Sc2ccccn2)c([N+](=O)[O-])c1` stands 38 µg/mL (≈ 139 µM).
Under `COc1ccc(C(=O)N2CCN(Cc3nc(CC4CC4)no3)CC2)cc1` stands above 53.5 µg/mL.
Under `COc1ccc(NC(=O)C2CCCN(S(C)(=O)=O)C2)cc1` (configuration not stated) stands 34.9 µg/mL (≈ 112 µM); under `CCC(=O)NC(Cc1ccccc1)c1nc2ccccc2[nH]1` (configuration not stated), above 44 µg/mL.
`COc1ccc(-c2cc(C(=O)Nc3cccc(O)c3)no2)cc1` registered a kinetic solubility below 0.3 µg/mL.
Next, `COc1ccccc1OCCC(=O)Nc1ccc2c(c1)OCO2`: above 47.3 µg/mL; `O=C(Nc1cccnc1)c1cc2cc(Br)ccc2o1`: 0.9 µg/mL (≈ 2.84 µM).
On to `COc1cccc(C(=S)N2CCCC2)c1OC`, for which the solubility (kinetic) was 35.3 µg/mL (≈ 140 µM).
Next, `CN(C)C(=S)Nc1ccc(Br)c(Cl)c1`: 37 µg/mL (≈ 126 µM); `Clc1ccc(C[n+]2cc(-c3ccc(Cl)cc3)n3c2CCC3)cc1.[Cl-]`: above 57 µg/mL; `CC(C)(Oc1ccc(Cl)cc1)C(=O)NC1CCCCC1`: 3.9 µg/mL (≈ 13.2 µM).
In turn, `CC1(c2ccc(OCC(N)=O)cc2)NC(=O)NC1=O` (configuration not stated) had a kinetic solubility of 35.7 µg/mL (≈ 136 µM). This solubility kinetic is about 9.2-fold higher than that of the molecule before.
Next, `CCOc1ccc2nc(SCC(=O)NCc3ccc(OC)cc3)[nH]c2c1`: 20.2 µg/mL (≈ 54.4 µM).
Under `CCn1c(C)cc(/C=C2/SC(=O)N(C(C)C(=O)OC)C2=O)c1C` (configuration not stated) stands 22.3 µg/mL (≈ 66.3 µM).
Consider `S=C(Cc1ccc(-c2ccccc2)cc1)N1CCOCC1`, for which the kinetic solubility is 0.7 µg/mL (≈ 2.35 µM).
In turn, `Fc1cccc(CN2CCC(Cc3ccccc3)CC2)c1` returned a kinetic solubility of 13.5 µg/mL (≈ 47.6 µM).
Next, `COc1ccccc1OC(C)C(=O)N1CC(=O)Nc2ccccc21` (configuration not stated): above 49 µg/mL; `CCOc1ccc(-c2nc(CCl)cs2)cc1OC.Cl`: 27.2 µg/mL; `C=CCNC(=S)Nc1cccc(N)c1`: above 31.1 µg/mL.
Next, `CC(C)CCN1CCN(Cc2nc3ccccc3s2)CC1CCO` (configuration not stated): above 52.1 µg/mL.
In turn, `CC(=O)Nc1cccc(NC(=O)Nc2cccc3ccccc23)c1` returned a kinetic solubility of 0.8 µg/mL (≈ 2.5 µM).
Under `COc1ccc(/C(N)=N/OC(=O)CCC2CCCC2)cc1` stands 4.2 µg/mL (≈ 14.5 µM); under `O=C(CNC(=O)c1ccco1)NCc1nc2ccccc2[nH]1`, above 44.7 µg/mL.
Next, `CS(=O)(=O)N(CC(=O)N1CCCCCC1)c1cccc([N+](=O)[O-])c1`: above 53.3 µg/mL.
`Cc1ccc(S(=O)(=O)Nc2ccccc2N2CCCCC2)cc1`: the kinetic solubility was found to be 3.1 µg/mL (≈ 9.38 µM).
Under `COc1cccc(CNC(C)C(=O)Nc2ccc(S(=O)(=O)N3CCCC3)cc2)c1` (configuration not stated) stands above 62.6 µg/mL.
Take `O=c1c2cc(F)ccc2[nH]c(=S)n1Cc1ccc(F)cc1`: the kinetic solubility worked out at 0.9 µg/mL (≈ 2.96 µM).
Next, `C[N+]1(C)CCc2cc3c(cc2[C@H]1[C@@H]1OC(=O)c2c1ccc1c2OCO1)OCO3.[I-]`: above 76.4 µg/mL.
Under `O=c1[nH]c(-c2ccc(O)cc2)nc2scc(-c3cccs3)c12` stands 0.5 µg/mL (≈ 1.53 µM); under `O=[N+]([O-])c1ccc(SCc2ccncc2)nc1`, 30.5 µg/mL (≈ 123 µM); under `O=C(Nc1cc(-c2ccccc2)cs1)c1ccco1`, 4.7 µg/mL (≈ 17.5 µM).
Under `COc1ccc(/C=C/C(=O)O)cc1S(=O)(=O)Nc1ccc2c(c1)OCO2` stands 49.8 µg/mL (≈ 132 µM); under `Cc1cccc(C)c1NC(=O)c1ccc(OCc2c(C)noc2C)cc1`, 8.7 µg/mL (≈ 24.8 µM); under `O=C(COC(=O)c1ccc([N+](=O)[O-])o1)NCc1ccc2c(c1)OCO2`, above 52.2 µg/mL.
`Cc1cc(C)n2c(=O)c3ccc(Cl)cc3nc2c1C#N` gave a kinetic solubility of 1.3 µg/mL (≈ 4.58 µM).
Under `Cc1noc(-c2ccc(Cl)cc2)c1C(=O)O/N=C(\N)c1ccc(C(C)(C)C)cc1` stands 0.5 µg/mL (≈ 1.21 µM).
The molecule `CC(=O)N1CCN(c2cc(N3CCCC3)c(F)cc2[N+](=O)[O-])CC1` returned a kinetic solubility above 50.5 µg/mL.
Under `Cc1ccc(C(=O)NC(=S)NCc2cccnc2)cc1C` stands 26.9 µg/mL (≈ 89.8 µM).
Next, `COc1ccc(OC)c(S(=O)(=O)NCCc2csc(-c3cccnc3)n2)c1`: 59 µg/mL (≈ 145 µM); `O=C(CSCCOc1ccccc1)NCc1ccncc1`: above 45.4 µg/mL.
As to `CN(C)/C(=N\S(=O)(=O)c1ccc(F)cc1)c1ccccc1`, the kinetic solubility was above 46 µg/mL.
Molecule `COc1ccc(S(=O)(=O)N(C)CC(=O)N2CCCC2)cc1` had a kinetic solubility above 46.9 µg/mL.
The molecule `Cc1nnc(NC(=O)C2CCN(S(=O)(=O)c3ccc(F)c(F)c3)CC2)o1` came in with a kinetic solubility above 58 µg/mL.
Under `COc1c(C(=O)Nc2nccs2)ccc2ccccc12` stands 17 µg/mL (≈ 59.8 µM); under `OC1(c2ccc(F)cc2)CCN(Cc2cccnc2)CC1`, above 43 µg/mL.
For the molecule `O=C(Nc1sc2c(c1C(=O)O)CCC2)C(=O)N1CCOCC1`, the kinetic solubility is above 48.7 µg/mL.
`O=C1CCc2cc(S(=O)(=O)NC3CCCCC3)ccc2N1`: the kinetic solubility is above 46.3 µg/mL.
In turn, `CCc1cccc(NS(=O)(=O)c2ccc3c(c2)n(C)c(=O)n3C)c1` yielded a kinetic solubility of 3.4 µg/mL (≈ 9.84 µM).
Next, `COc1ccccc1CNC(=O)C(c1ccccc1)c1ccccc1`: below 0.7 µg/mL; `COc1cc(S(=O)(=O)N2CCn3cccc3C2C)ccc1NC(C)=O` (configuration not stated): above 54.5 µg/mL.
For the molecule `Cc1ccc(C)c(CSC2=NCCN2C(=O)c2cccs2)c1`, the solubility (kinetic) stood at 1 µg/mL (≈ 3.03 µM).
Under `CCCC(=O)NC(c1ccccc1)c1c(O)ccc2ccccc12` (configuration not stated) stands below 0.7 µg/mL; under `CCCCC(=O)Nc1ccccc1N1CCN(c2ccccc2)CC1`, 8.1 µg/mL (≈ 24 µM); under `COc1ccccc1N1CCN(C(=S)Nc2ccccc2)CC1`, 39.3 µg/mL (≈ 120 µM).
Under `O=C(c1c(F)cccc1F)N1CCN=C1SCc1ccccc1` stands 18.5 µg/mL (≈ 55.7 µM); under `O=C(CC1CCCC1)N1CCN(S(=O)(=O)c2ccccc2)CC1`, above 50.5 µg/mL.
The molecule `Br.COc1ccccc1N1CCN(CCCCN2C(=O)c3ccccc3C2=O)CC1` had a kinetic solubility above 71.2 µg/mL.
In turn, `COc1ccc(C(=O)NCCCNC(=O)c2ccccn2)cc1` showed a kinetic solubility above 47 µg/mL.
Under `Cc1nc(SCc2ccc(C(=O)O)cc2)c2c(C)c(C)sc2n1` stands 49.5 µg/mL (≈ 144 µM); under `Cc1cccn2c(=O)c3cc(C(=O)NCC(C)C)sc3nc12`, 1.2 µg/mL (≈ 3.8 µM).
Molecule `Cc1ccc2nsnc2c1NC(=O)Cc1ccc(Cl)cc1` had a kinetic solubility of 0.7 µg/mL (≈ 2.2 µM).
In turn, `CCCN1CCC(N(CCc2ccccc2)Cc2ccccc2)CC1` gave a solubility (kinetic) of 32.5 µg/mL (≈ 96.6 µM).
The molecule `COc1cc2c(cc1OC)C(C)N(C(=O)c1c(-c3ccccc3)noc1C)CC2` (configuration not stated) returned a solubility (kinetic) of 9 µg/mL (≈ 22.9 µM).
Under `Cc1cccc(CN2C3=NCCCN3c3ccccc32)c1.Cl` stands above 47.1 µg/mL; under `CCN(CC)CC#CC(O)(c1ccccc1)c1ccccc1`, above 44 µg/mL.
Under `O=C(Nc1cccnc1)c1cc2c(s1)-c1ccccc1OC2` stands 0.8 µg/mL (≈ 2.59 µM).
Under `CCOC(=O)CC1C(=O)NCCN1Cc1ccc(OC)c(OC)c1` (configuration not stated) stands above 50.5 µg/mL.
In the case of `N#Cc1ccc(NC(=O)c2cc(-c3cccs3)on2)cc1`, the solubility (kinetic) is below 0.2 µg/mL.
Next, `CCNC(=O)C(CCSC)NS(=O)(=O)c1ccc(C)cc1` (configuration not stated): above 49.6 µg/mL; `CCc1ccccc1NC(=O)N1CCc2ccccc21`: 6.1 µg/mL (≈ 22.9 µM); `CN(C)c1cccc(NC(=O)c2cccc3ccccc23)c1`: 6.1 µg/mL (≈ 21 µM).
On to `Cn1nccc1C(=O)N1CCOCC1`, for which the kinetic solubility is above 29.3 µg/mL.
Under `O=C(O)c1ccc2c(=O)n(-c3ccc(F)cc3)c(=S)[nH]c2c1` stands above 47.4 µg/mL.
Next, `COc1ccccc1N1CCN(Cc2nc3ccccc3[nH]2)CC1`: 47.9 µg/mL (≈ 149 µM); `CC(=O)c1ccc(NC(=O)C2CC(=O)N(C(C)C)C2)cc1` (configuration not stated): above 43.3 µg/mL.
Under `CCOc1cccc(N2C(=O)/C(=C/c3ccco3)C(=O)NC2=S)c1` stands 12.3 µg/mL (≈ 35.9 µM); under `CCc1ccc2c(c1)C(O)(CC(=O)c1cccs1)C(=O)N2` (configuration not stated), above 45.2 µg/mL.
Regarding `CCc1nc2ccc(C(=O)N3CCN(CC)CC3)cc2nc1CC`, the kinetic solubility stood at 48.6 µg/mL (≈ 149 µM).
The molecule `CC(=O)N(C)c1ccc(N=C2C(=O)Nc3ccccc32)cc1` had a solubility (kinetic) above 44 µg/mL.
Under `CC(=O)N/C(=C\c1ccccc1)C(=O)OCC(=O)Nc1ccc(C)c(S(=O)(=O)N(C)C)c1` stands 56.9 µg/mL (≈ 124 µM); under `CNCCCC1c2ccccc2C=Cc2ccccc21.Cl`, above 45 µg/mL.
Under `O=C(c1cn(Cc2ccccc2F)c2ncccc12)C(F)(F)F` stands 2.8 µg/mL (≈ 8.69 µM); under `Cc1cccc(NC(=O)C2CC3CCC2C3)c1C` (configuration not stated), 10.5 µg/mL (≈ 43.1 µM); under `Cc1ccc(C)c(OCC(=O)O/N=C(\N)c2cccnc2)c1`, 11.2 µg/mL (≈ 37.4 µM).
Under `Cc1ccc(NC(=S)N(CCN(C)C)C(C)c2cccnc2)cc1` (configuration not stated) stands above 51.4 µg/mL; under `CC(=O)Nc1ccc(C(=O)OCc2ccc(F)cc2Cl)cc1`, 1.7 µg/mL (≈ 5.28 µM); under `CN(C(=O)/C=C/c1ccc(F)cc1)C1CCCCC1`, above 39.2 µg/mL.
Molecule `COc1ccc(C(=O)OCC(=O)NC2CCCC2)c(OC)c1OC` returned a kinetic solubility above 50.6 µg/mL.
Next, `O=C(CCC(=O)Nc1cccc([N+](=O)[O-])c1)NCc1ccccc1`: 48.5 µg/mL (≈ 148 µM); `CC(CN1CCCCC1)OC(=O)/C=C/c1ccccc1.Cl` (configuration not stated): above 46.5 µg/mL; `COc1ccccc1NS(=O)(=O)c1cc(NC(=O)COc2ccccc2)ccc1N1CCOCC1`: 8.1 µg/mL (≈ 16.3 µM).
As for `O=[N+]([O-])c1ccc(Cl)c(S(=O)(=O)NCCc2ccccn2)c1`, the solubility (kinetic) was above 51.3 µg/mL.
Molecule `COCCCn1c(=O)c2ccccc2n(Cc2ccccc2C)c1=O` registered a kinetic solubility above 50.8 µg/mL.
